Test results as given in patent publication US20260250289A1, “BICYCLIC HETEROCYCLES AND THEIR USE AS WRN INHIBITORS” (Novartis AG, priority 2022, published 2026).

Tests used:
[1] = target: T1, WRN helicase (aa N517-P1238) (Homo sapiens, UniProt Q14191); experiment: WRN ATPase assay (DNA dependent ATP hydrolysis, ADP-Glo); type: biochemical; details: 3 hours pre-incubation, 300 micromolar ATP, FLAP26 DNA; geometric mean of at least 2
T1 construct: The core helicase motif of the WRN protein (aa N517-P1238) was produced for this assay; His (N); ZZ (N); 3C protease cleavage site (N); made in house; host or cells: Sf21 insect cells (baculovirus; virus and BIICs made in SF9)
Outline: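 DNA-dependent ATP hydrolysis detected as ADP by ADP-Glo luminescence, using 300 μM ATP, 0.2 nM FLAP26 substrate and 10 nM WRN aa N517-P1238 (Tris pH 7.5 buffer, 2 mM MgCl2, 50 mM NaCl). IC50s fitted from normalized duplicate half-log dilutions; reported as geometric means of at least 2 replicates.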

[2] = system: SW48 cells; experiment: Proliferation assay SW48 (CellTiterGlo); type: cell-based; details: Homo sapiens, SW48, 96 h, SW48 colon carcinoma cells, 96 hours, CellTiterGlo; geometric mean of at least 2; read-out: Proliferation Assay SW48 GI50
Outline: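 Read-out is CellTiterGlo luminescence after 96 hours of compound exposure, with % growth calculated against day-0 and vehicle-treated ATP levels. SW48 seeded at 2,000 cells/well, dosed next day with eight 3-fold serial dilutions, 0.1% DMSO. GI50 reported as geometric mean, at least 2 replicates.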

[3] = system: DLD1-WRN-KO cells; experiment: Proliferation assay DLD1-WRN-KO (CellTiterGlo, off-target effects); type: cell-based; details: 96 hours, geometric mean of at least 2
Outline: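 DLD1 cells with CRISPR knockout of WRN were exposed overnight-seeded to eight 3-fold compound dilutions (0.1% DMSO) for 96 h at 37 °C. Viability was read as ATP by CellTiterGlo luminescence against a day-0 plate, giving GI50 and residual viability at top concentration.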

T1 sequence (Q14191 517-1238): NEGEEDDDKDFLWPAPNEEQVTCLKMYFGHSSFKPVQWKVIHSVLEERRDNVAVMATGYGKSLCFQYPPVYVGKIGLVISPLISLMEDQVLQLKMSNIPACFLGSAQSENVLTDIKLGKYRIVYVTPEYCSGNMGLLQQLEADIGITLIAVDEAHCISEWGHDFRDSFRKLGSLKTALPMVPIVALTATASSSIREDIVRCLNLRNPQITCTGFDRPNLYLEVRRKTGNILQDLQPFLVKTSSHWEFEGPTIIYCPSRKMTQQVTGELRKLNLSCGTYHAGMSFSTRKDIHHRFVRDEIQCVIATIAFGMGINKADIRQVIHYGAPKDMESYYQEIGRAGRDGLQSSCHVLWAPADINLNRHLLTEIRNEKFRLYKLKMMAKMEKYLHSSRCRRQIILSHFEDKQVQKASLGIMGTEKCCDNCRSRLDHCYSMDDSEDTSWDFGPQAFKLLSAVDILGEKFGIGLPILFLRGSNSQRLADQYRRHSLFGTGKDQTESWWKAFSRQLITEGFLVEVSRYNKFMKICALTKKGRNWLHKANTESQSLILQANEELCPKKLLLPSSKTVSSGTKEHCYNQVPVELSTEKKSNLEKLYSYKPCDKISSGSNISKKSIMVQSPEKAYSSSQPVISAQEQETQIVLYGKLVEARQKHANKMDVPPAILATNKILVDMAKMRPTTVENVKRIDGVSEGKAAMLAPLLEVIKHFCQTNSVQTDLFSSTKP

Compound	IC50 [1] [nM]	GI50 [2] [nM]	GI50 [3] [nM]
CC(=O)N1CCN(c2c(C)n(CC(=O)Nc3ccc(C(F)(F)F)cc3)c3nc(-c4ccc(CN(C)C(=O)OC(C)(C)C)cc4)nn3c2=O)CC1 [Example 95, tert-butyl (4-(6-(4-acetylpiperazin-1-yl)-5-methyl-7-oxo-4-(2-oxo-2-((4-(trifluoromethyl)phenyl)amino)ethyl)-4,7-dihydro-[1,2,4]triazolo[1,5-a]pyrimidin-2-yl)benzyl)(methyl)carbamate]	800	2000	> 10000
CCc1c(N2CCN(C(C)=O)CC2)c(=O)n2nc(C3=CCCCO3)nc2n1CC(=O)Nc1ccc(C(F)(F)F)cc1 [Example 57, 2-(6-(4-acetylpiperazin-1-yl)-2-(3,4-dihydro-2H-pyran-6-yl)-5-ethyl-7-oxo-[1,2,4]triazolo[1,5-a]pyrimidin-4(7H)-yl)-N-(4-(trifluoromethyl)phenyl)acetamide]	100	1000	> 10000
CC(=O)N1CCN(c2c(C)n(CC(=O)Nc3ccc(C(F)(F)F)cc3)c3nc(-c4cnc(C)o4)nn3c2=O)CC1 [Example 135, 2-(6-(4-acetylpiperazin-1-yl)-5-methyl-2-(2-methyloxazol-5-yl)-7-oxo-[1,2,4]triazolo[1,5-a]pyrimidin-4(7H)-yl)-N-(4-(trifluoromethyl)phenyl)acetamide]	400	> 10000	> 10000
CC(=O)N1CCN(c2c(C(C)C)n(CC(=O)Nc3ccc(C(F)(F)F)cc3)c3nc(C4=CCOCC4)nn3c2=O)CC1 [Example 162, 2-(6-(4-acetylpiperazin-1-yl)-2-(3,6-dihydro-2H-pyran-4-yl)-5-isopropyl-7-oxo-[1,2,4]triazolo[1,5-a]pyrimidin-4(7H)-yl)-N-(4-(trifluoromethyl)phenyl)acetamide]	900	3000	> 10000
Cc1c(N2CCN(C(=O)OCc3ccccc3)CC2)c(=O)n2nc(C3=CCOCC3)nc2n1CC(=O)Nc1ccc(C(F)(F)F)cc1 [Example 65, benzyl 4-(2-(3,6-dihydro-2H-pyran-4-yl)-5-methyl-7-oxo-4-(2-oxo-2-((4-(trifluoromethyl)phenyl)amino)ethyl)-4,7-dihydro-[1,2,4]triazolo[1,5-a]pyrimidin-6-yl)piperazine-1-carboxylate]	8000	4000	4000
CC(=O)N1CCN(c2c(C)n(CC(=O)Nc3cc(F)c(C(F)(F)F)c(F)c3)c3nc(C4=CCOCC4)nn3c2=O)CC1 [Example 103, 2-(6-(4-acetylpiperazin-1-yl)-2-(3,6-dihydro-2H-pyran-4-yl)-5-methyl-7-oxo-[1,2,4]triazolo[1,5-a]pyrimidin-4(7H)-yl)-N-(3,5-difluoro-4-(trifluoromethyl)phenyl)acetamide]	4000	4000	> 10000
CCc1c(N2CCN(C(=O)c3nsnc3O)CC2)c(=O)n2nc(C3=CCOCC3)nc2n1CC(=O)Nc1ccc(C(F)(F)F)cc1Cl [Example 66, N-(2-chloro-4-(trifluoromethyl)phenyl)-2-(2-(3,6-dihydro-2H-pyran-4-yl)-5-ethyl-6-(4-(4-hydroxy-1,2,5-thiadiazole-3-carbonyl)piperazin-1-yl)-7-oxo-[1,2,4]triazolo[1,5-a]pyrimidin-4(7H)-yl)acetamide]	30	300	> 10000
CC(=O)N1CCN(c2c(C)n(CC(=O)Nc3cc(F)c(C(F)(F)F)nc3Cl)c3nc(C4=CCOCC4)nn3c2=O)CC1 [Example 101, 2-(6-(4-acetylpiperazin-1-yl)-2-(3,6-dihydro-2H-pyran-4-yl)-5-methyl-7-oxo-[1,2,4]triazolo[1,5-a]pyrimidin-4(7H)-yl)-N-(2-chloro-5-fluoro-6-(trifluoromethyl)pyridin-3-yl)acetamide]	2000	10000	> 10000
CC(=O)N1C2CCC1CN(c1c(C)n(CC(=O)Nc3ccc(C(F)(F)F)cc3)c3nc(C4=CCOCC4)nn3c1=O)C2 [Example 161, 2-(6-(8-acetyl-3,8-diazabicyclo[3.2.1]octan-3-yl)-2-(3,6-dihydro-2H-pyran-4-yl)-5-methyl-7-oxo-[1,2,4]triazolo[1,5-a]pyrimidin-4(7H)-yl)-N-(4-(trifluoromethyl)phenyl)acetamide]	700	5000	> 10000

Continued, values first:

IC50 [1] [nM]	GI50 [2] [nM]	GI50 [3] [nM]	Compound
100	2000	> 10000	CCc1c(N2CCN(C(C)=O)CC2)c(=O)n2nc(C3=CCOCC3)nc2n1CC(=O)Nc1ccc(C(F)(F)F)cc1C [Example 58, 2-(6-(4-acetylpiperazin-1-yl)-2-(3,6-dihydro-2H-pyran-4-yl)-5-ethyl-7-oxo-[1,2,4]triazolo[1,5-a]pyrimidin-4(7H)-yl)-N-(2-methyl-4-(trifluoromethyl)phenyl)acetamide]
30	300	> 10000	Cc1c(N2CCN(C(=O)c3c(F)ccc(F)c3O)CC2)c(=O)n2nc(C3=CCOCC3)nc2n1CC(=O)Nc1ccc(C(F)(F)F)cc1 [Example 13, 2-(6-(4-(3,6-difluoro-2-hydroxybenzoyl)piperazin-1-yl)-2-(3,6-dihydro-2H-pyran-4-yl)-5-methyl-7-oxo-[1,2,4]triazolo[1,5-a]pyrimidin-4(7H)-yl)-N-(4-(trifluoromethyl)phenyl)acetamide]
300	> 10000	> 10000	Cc1cc(C(=O)N2CCN(c3c(C)n(CC(=O)Nc4ccc(C(F)(F)F)cc4)c4nc(C5=CCOCC5)nn4c3=O)CC2)c(O)cn1 [Example 26, 2-(2-(3,6-dihydro-2H-pyran-4-yl)-6-(4-(5-hydroxy-2-methylisonicotinoyl)piperazin-1-yl)-5-methyl-7-oxo-[1,2,4]triazolo[1,5-a]pyrimidin-4(7H)-yl)-N-(4-(trifluoromethyl)phenyl)acetamide]
500	4000	> 10000	CC(=O)N1CCN(c2c(C)n(CC(=O)Nc3ccc(C(F)(F)F)cc3)c3nc(C4=CCOCC4)nn3c2=O)C[C@H]1C [Example 63, (R)-2-(6-(4-acetyl-3-methylpiperazin-1-yl)-2-(3,6-dihydro-2H-pyran-4-yl)-5-methyl-7-oxo-[1,2,4]triazolo[1,5-a]pyrimidin-4(7H)-yl)-N-(4-(trifluoromethyl)phenyl)acetamide]
200	3000	> 10000	CC(=O)N1CCN(c2c(C)n(CC(=O)Nc3ccc(S(F)(F)(F)(F)F)cc3)c3nc(C4=CCOCC4)nn3c2=O)CC1 [Example 78, 2-(6-(4-acetylpiperazin-1-yl)-2-(3,6-dihydro-2H-pyran-4-yl)-5-methyl-7-oxo-[1,2,4]triazolo[1,5-a]pyrimidin-4(7H)-yl)-N-(4-(pentafluoro-l6-sulfaneyl)phenyl)acetamide]
600	9000	> 10000	CC(=O)N1CCN(c2c(C)n(CC(=O)Nc3ccc(C(F)(F)F)cc3)c3nc(C4=CCC(F)(F)CC4)nn3c2=O)CC1 [Example 118, 2-(6-(4-acetylpiperazin-1-yl)-2-(4,4-difluorocyclohex-1-en-1-yl)-5-methyl-7-oxo-[1,2,4]triazolo[1,5-a]pyrimidin-4(7H)-yl)-N-(4-(trifluoromethyl)phenyl)acetamide]
700	3000	> 10000	CC(=O)N1CCN(c2c(C)n(CC(=O)Nc3cc(F)c(C(F)F)cc3C)c3nc(C4=CCOCC4)nn3c2=O)CC1 [Example 94, 2-(6-(4-acetylpiperazin-1-yl)-2-(3,6-dihydro-2H-pyran-4-yl)-5-methyl-7-oxo-[1,2,4]triazolo[1,5-a]pyrimidin-4(7H)-yl)-N-(4-(difluoromethyl)-5-fluoro-2-methylphenyl)acetamide]
2000	7000	> 10000	CC(=O)N1CCN(c2c(C)n(CC(=O)Nc3ccc(C(F)(F)F)cc3)c3nc(N4CCC5CC54)nn3c2=O)CC1 (stereo not drawn) [Example 6, 2-(6-(4-acetylpiperazin-1-yl)-2-(2-azabicyclo[3.1.0]hexan-2-yl)-5-methyl-7-oxo-[1,2,4]triazolo[1,5-a]pyrimidin-4(7H)-yl)-N-(4-(trifluoromethyl)phenyl)acetamide]
500	2000	5000	CC(=O)N1CCN(c2c(C)n(CC(=O)Nc3ccc(C(F)(F)F)cc3)c3nc(-c4ccccn4)nn3c2=O)CC1 [Example 115, 2-(6-(4-acetylpiperazin-1-yl)-5-methyl-7-oxo-2-(pyridin-2-yl)-[1,2,4]triazolo[1,5-a]pyrimidin-4(7H)-yl)-N-(4-(trifluoromethyl)phenyl)acetamide]
1000	8000	> 10000	CCc1c(N2CCN(C(=O)CN)CC2)c(=O)n2nc(C3=CCC(OC)CC3)nc2n1CC(=O)Nc1ccc(C(F)(F)F)cc1 (stereo not drawn) [Example 33, 2-(5-ethyl-6-(4-glycylpiperazin-1-yl)-2-(4-methoxycyclohex-1-en-1-yl)-7-oxo-[1,2,4]triazolo[1,5-a]pyrimidin-4(7H)-yl)-N-(4-(trifluoromethyl)phenyl)acetamide]
